Experiment [1] concerns Ileum. The experiment in a line: Ex vivo spasmolytic activity in ACh-induced contractions in Sprague-Dawley rat ileum incubated for 5 mins in presence of GLIB. In kind it is functional, tissue-based.
Experiment [2] concerns Ileum. The experiment in a line: Ex vivo spasmolytic activity in ACh-induced contractions in Sprague-Dawley rat ileum incubated for 5 mins. Type of experiment: functional, tissue-based.
Experiment [3] concerns Ileum. The experiment in a line: Ex vivo spasmolytic activity in ACh-induced contractions in Sprague-Dawley rat ileum at 0.5 to 8 uM incubated for 5 mins in presence ODQ relative to control. In kind it is functional. The following applies: dose 0.5-8 µM.
The subject of experiment [4] is Ileum. Put plainly: Ex vivo spasmolytic activity in ACh-induced contractions in Sprague-Dawley rat ileum at 0.5 to 8 uM incubated for 5 mins in presence of 4-AP relative to control. Type of experiment: functional. To be noted: dose 0.5-8 µM.
Experiment [5] has as its system Ileum. The experiment in a line: Ex vivo spasmolytic activity in CaCl2-induced contractions in Sprague-Dawley rat ileum at 1 to 2 uM incubated for 15 mins. In kind it is functional, tissue-based. The following applies: dose 1-2 µM.
Experiment [6] relates to Ileum. The experiment in a line: Ex vivo spasmolytic activity in ACh-induced contractions in Sprague-Dawley rat ileum incubated for 5 mins in presence of 4-AP. In kind it is functional, tissue-based.
Experiment [7] relates to Ileum. Put plainly: Ex vivo spasmolytic activity in ACh-induced contractions in Sprague-Dawley rat ileum incubated for 5 mins in presence ODQ. In kind it is functional, tissue-based.
For experiment [8], the system named is Ileum. The experiment in a line: Ex vivo spasmolytic activity in ACh-induced contractions in Sprague-Dawley rat ileum at 0.5 to 8 uM incubated for 5 mins in presence of CsCl relative to control. In kind it is functional. The following applies: dose 0.5-8 µM.
The test system of experiment [9] is Ileum. The experiment in a line: Ex vivo spasmolytic activity in ACh-induced contractions in Sprague-Dawley rat ileum at 2 uM incubated for 5 mins. In kind it is functional, tissue-based.
The subject of experiment [10] is Ileum. The experiment in a line: Ex vivo spasmolytic activity in ACh-induced contractions in Sprague-Dawley rat ileum incubated for 5 mins in presence of CsCl. Type of experiment: functional, tissue-based.
Experiment [11] has as its system Ileum. The experiment in a line: Ex vivo spasmolytic activity in ACh-induced contractions in Sprague-Dawley rat ileum incubated for 5 mins in presence L-NAME. Type of experiment: functional, tissue-based.
For experiment [12], the system named is Ileum. Put plainly: Ex vivo spasmolytic activity in ACh-induced contractions in Sprague-Dawley rat ileum incubated for 5 mins in presence of TEA. In kind it is functional, tissue-based.
In experiment [13] the test system is Ileum. The experiment in a line: Ex vivo spasmolytic activity in ACh-induced contractions in Sprague-Dawley rat ileum at 0.5 to 8 uM incubated for 5 mins in presence L-NAME relative to control. In kind it is functional. The following applies: dose 0.5-8 µM.
The test system of experiment [14] is Ileum. Put plainly: Ex vivo spasmolytic activity in ACh-induced contractions in Sprague-Dawley rat ileum at 0.5 to 8 uM incubated for 5 mins in presence of TEA relative to control. To be noted: dose 0.5-8 µM. Type of experiment: functional.
Experiment [15] deals with Ileum. Put plainly: Ex vivo spasmolytic activity in ACh-induced contractions in Sprague-Dawley rat ileum at 0.5 to 8 uM incubated for 5 mins in presence of GLIB relative to control. In kind it is functional. To be noted: dose 0.5-8 µM.
Experiment [16] relates to Ileum. The experiment in a line: Ex vivo spasmolytic activity in ACh-induced contractions in Sprague-Dawley rat ileum at 0.5 to 8 uM incubated for 5 mins relative to control. Type of experiment: functional. To be noted: dose 0.5-8 µM.

Active and inactive are the calls of the source. No cut-off for these calls is given here.

With `COc1cc2cc(c1OC)-c1cc(ccc1O)C[C@H](O)C(=O)CCC2`, the EC50 (usually the concentration needed to bring the measured effect to its halfway point) with Ileum [1] turned out to be 1700 nM; in the experiment on Ileum [2], 1400 nM; in the experiment on Ileum [6], 1900 nM; in the experiment on Ileum [7] it was 1600 nM; in the experiment on Ileum [10], 1600 nM; with Ileum [11], 5100 nM. The EC50 with Ileum [12] amounted to 1500 nM. For the same compound, the Emax (commonly the maximal effect, on the per cent scale that the assay sets) amounted to 81.7% in the experiment with Ileum [3]; 71.9% in the experiment on Ileum [4]; 82.7% in the experiment on Ileum [8]; 43% in the experiment with Ileum [13]; 60.8% with Ileum [14]; 84.9% with Ileum [15]. The same compound registered an Emax in the experiment with Ileum [16] of 79.8%. In addition, the outcome in the experiment on Ileum [5] was Active. For the same compound, the Activity result with Ileum [9] is listed as “Active; Activity Less Than Dichloromethane”. In turn, `COc1c2ccc(c1O)CCCCC(=O)CCc1ccc(O)c(c1)O2` had an EC50 in the experiment on Ileum [2] of 3800 nM. The same measure, in the same setting: for `COc1c2cc(c(O[C@@H]3O[C@H](CO)[C@@H](O)[C@H](O)[C@H]3O)c1OC)CCCC(=O)[C@@H](O)Cc1ccc(O)c-2c1` the value was 1600 nM; for `COc1c2cc(c(O[C@@H]3O[C@H](CO)[C@@H](O)[C@H](O)[C@H]3O)c1OC)CCCCC(=O)[C@@H](O)Cc1ccc(O)c-2c1`, 2400 nM; for `COc1c2ccc(c1O[C@@H]1O[C@H](CO)[C@@H](O)[C@H](O)[C@H]1O)CCCCC(O)CCc1ccc(O)c(c1)O2` (stereo partly drawn), 3600 nM.

In the case of `COc1c2cc(c(O)c1OC)CCCC[C@@H](OC(C)=O)CCc1ccc(O)c-2c1`, in the experiment on Ileum [2], a half-maximal response (EC50) required 3700 nM. The same measure, in the same setting: next, `COc1c2cc(c(O)c1OC)CCCC(=O)[C@@H](O)Cc1ccc(O)c-2c1`: 5100 nM.

`COc1c2cc(c(O[C@@H]3O[C@H](CO)[C@@H](O)[C@H](O)[C@H]3O)c1OC)CCCC[C@@H](O)CCc1ccc(O)c-2c1` displayed an EC50 in the experiment on Ileum [2] of 3200 nM. Still for that read-out and setting: for `CCN(CC)CCOC(=O)C1(C2CCCCC2)CCCCC1` [DICYCLOMINE] the value was 600 nM; for `COc1c2cc(c(O[C@@H]3O[C@H](CO)[C@@H](O)[C@H](O)[C@H]3O)c1OC)CCCCC(=O)CCc1ccc(O)c-2c1`, 2300 nM; for `COc1c2cc(c(O[C@@H]3O[C@H](CO)[C@@H](O)[C@H](O)[C@H]3O)c1OC)CCCC[C@H](O)CCc1ccc(O)c-2c1`, 2400 nM. Still for that read-out and setting: for `COc1c2cc(c(OC)c1OC)-c1cc(ccc1O)[C@H](O)CC(=O)CCCC2` the value was 4600 nM; for `COc1c2cc(c(OC)c1O)-c1cc(ccc1O)CC[C@H](O)CCCC2`, 1500 nM.

`COc1cc2cc(c1OC)-c1cc(ccc1O)CCC(=O)CCCC2` came in with an EC50 in the experiment with Ileum [2] of 5000 nM. Same read-out and setting: for `COc1c2cc(c(O)c1OC)CCCC[C@@H](O)CCc1ccc(O)c-2c1` the value was 2900 nM; for `COc1c2cc(c(OC)c1OC)-c1cc(ccc1O)C[C@@H](O)[C@@H](O)CCCC2`, 2800 nM; for `COc1c2cc(c(O)c1OC)CCCCC(=O)CCc1ccc(O)c-2c1` [MYRICANONE], 2900 nM. The same measure, in the same setting: next, `COc1c2cc(c(O[C@@H]3O[C@H](CO)[C@@H](O)[C@H](O)[C@H]3O)c1OC)CCCC[C@@H](OC(C)=O)CCc1ccc(O)c-2c1`: 2800 nM.
